Measurements reported in patent publication US20230190677A1, “PHARMACEUTICAL COMPOSITION FOR PREVENTING OR TREATING AGING-RELATED DISEASES” (INDUSTRY ACADEMIC COOPERATION FOUNDATION CHOSUN UNIVERSITY, priority 2021, published 2023).
One block for each compound: values may come before it.

What was measured:
LC3, BECN1, SQSTM1 = test: Immunoblotting of autophagy markers, oxidative stress-induced senescence; assay type: cell-based, human
Procedure: (§1) H2O2 was used to induce oxidative stress-induced cell cycle arrest and senescence. Briefly, the cells were exposed to 200 μM H2O2 for 2 h and cultured for 2 d without H2O2. In the second treatment with H2O2, the cells were split 1:3, exposed to 200 μM H2O2 for 2 h, and cultured with either normal media (control), Lico D (1 μg/mL), ascorbic acid (500 μM AA; a positive control), or the compound C (0.5 μM; AMPK inhibitor) for 72 h. Cellular senescence was confirmed by SA-β-gal assay and Western blotting as described below.
(§2) Total proteins were extracted with RIPA (radioimmunoprecipitation) lysis buffer system containing phenylmethylsulfonyl fluoride (PMSF), sodium orthovanadate (Na3VO4), and protease inhibitor cocktail (Santa Cruz Biotechnology) at 4° C. for 30 min, and the samples were centrifuged (spun down) at 16,000×g for 20 min. The total protein concentration was quantified using the Pierce BCA Protein Assay Kit (Thermo Fisher Scientific). Proteins (30-50 μg) were loaded and separated via sodium dodecyl sulphate-polyacrylamide gel electrophoresis (SDS-PAGE) gel electrophoresis, followed by blotting on a PVDF membrane (GE Healthcare, Germany). The membranes were blocked with 1% blocking solution containing non-fat dry milk in TBST for 1 h 30 min at RT to prevent non-specific binding of primary antibodies. Subsequently, the membranes were incubated overnight at 4° C. with the corresponding primary antibodies. Secondary antibodies were conjugated with horseradish peroxidase and visualized using an enhanced chemiluminescence detection kit (GE Healthcare). Densitometry analysis was performed using the ImageJ software.

AMPK [1] = test: Immunoblotting of AMPK activation, oxidative stress-induced senescence; assay type: cell-based, human
Procedure: as §1
as §2, with “Subsequently, the membranes were incubated overnight at 4° C. with the corresponding primary antibodies. Secondary antibodies were conjugated with horseradish peroxidase and visualized using an enhanced chemiluminescence detection kit (GE Healthcare). Densitometry analysis was performed using the ImageJ software.” left out

D-Gal induced aging mice = test: Morris water maze (MWM) test in D-Gal induced aging mice; assay type: in vivo, C57BL/6 mice
Procedure: (§3) Six-week-old male C57BL/6 mice (weighing 22±2 g) were purchased from Samtako Bio Korea Co., Ltd. (Osan, Gyeonggi, Korea) and maintained at 23-25° C. under a 12-h light and 12-h dark cycle with free access to food and water in a pathogen-free facility. All animal experiments were approved by the Institutional Animal Care and Use Committee of Chosun University (CIACUC2020-S0009). After a week of acclimation, the animals were randomly divided into three groups (four mice per group): normal control group (PBS alone), D-Galactose model group (150 mg/kg/day), and D-Galactose +Lico D (0.5 mg/kg/day). The mice were intraperitoneally injected with either PBS or D-Gal for 10 weeks and from the third week onwards, the mice were intraperitoneally injected with Lico D for 8 weeks (FIG. 5A). Body weight was measured every week until the end of the experiment. Thereafter, the MWM (Morris water maze) test was performed for one week.

hBM-MSCs [2] = test: Detection of intracellular ROS (DCFH-DA); assay type: cell-based, human; conditions: hBM-MSCs pretreated 1 μg/mL 12 h, H2O2 0.7 mM 1 h, vs H2O2 alone (FIGS. 1C, 1D)
Procedure: (§4) To quantify the production of intracellular ROS, we used cell permeable substrate 2′,7′-dichlorofluorescin diacetate (DCFH-DA), which can be converted to highly detectable fluorescent 2′,7′-dichlorofluorescein upon oxidation. The cells were cultured in 12-well plates and 96-well plates for 24 h. After 24 h of culture, the cells were treated with 1 μg/mL of Lico D for 12 h and incubated with 20 μM DCFH-DA for 30 min. The cells were then washed with a phosphate-buffered saline (PBS) solution and incubated with H2O2 (0.7 mM) for 1 h at 37° C. The cells were then fixed with 4% paraformaldehyde at room temperature (RT) for 15 min and the nuclei were stained with Hoechst. Then, the cells were observed under a fluorescent microscope (Nikon Eclipse Ti2; Japan), and the images were captured (Nikon DS-Ri2; Japan) and analyzed using the Image J software. To analyze the apoptotic markers, the cells were pretreated with 1 μg/mL of Lico D followed by incubation with H2O2 (0.7 mM) for 1 h at 37° C., and then the proteins were isolated as described below.

p53, p16, and p21 = test: Immunoblotting of senescence markers, oxidative stress-induced senescence; assay type: cell-based, human; conditions: double time H2O2 treated hBM-MSCs, Lico D 1 μg/mL 72 h (FIGS. 3A-3D)
Procedure: as §1
as §2, with “Subsequently, the membranes were incubated overnight at 4° C. with the corresponding primary antibodies. Secondary antibodies were conjugated with horseradish peroxidase and visualized using an enhanced chemiluminescence detection kit (GE Healthcare). Densitometry analysis was performed using the ImageJ software.” left out

[3] = Body weight in D-Gal induced aging mice; assay type: in vivo, C57BL/6 mice; conditions: D-Gal 150 mg/kg/day i.p. 10 weeks, Lico D 0.5 mg/kg/day i.p. 8 weeks, measured weekly (FIG. 5B)
Procedure: as §3

RAGE = test: qRT-PCR of RAGE in D-Gal induced aging mice; assay type: in vivo, C57BL/6 mice; conditions: hippocampus, Lico D 0.5 mg/kg/day i.p. vs D-Gal treated mice (FIG. 5C)
Procedure: as §3
RNAisoPlus (Takara) was used to isolate total RNA from the hippocampus and heart tissues. Total RNA (2.5 μg) was then reverse-transcribed using PrimescriptTM II 1st strand cDNA synthesis kit (Takara) and quantified using the Power SYBR Green PCR Master mix (Applied BioSystems). To amplify β-actin and RAGE, the mouse primers in Table 1 below were used. […]

hBM-MSCs [4] = test: MTT cell viability assay (cytotoxic effect); assay type: cell-based, human; conditions: Lico D 0-8 μg/mL for 12 h, MTT (FIG. 1A)
Procedure: (§5) Human bone marrow derived mesenchymal stem cells (hBM-MSCs) were acquired from Cell Engineering for Origin (CEFO), Seoul, Korea. The cells were free from bacterial, viral, and mycoplasmal contamination. […] The cells were grown in Dulbecco's modified Eagle medium (DMEM) (Gibco, Life Technologies, Grand Island, N.Y., USA) supplemented with 10% FBS (Gibco, Life Technologies, USA), L-glutamine, and 1% penicillin/streptomycin solution (Lonza, Walkersville, Md., USA). The cells were manipulated under sterile conditions in a humidified incubator at 37° C. with 5% CO2 and 95% air. The cells were subcultured as soon as they reached confluence. The cells were serially monitored under bright field microscopy (Nikon Eclipse TS100; Tokyo, Japan), and the media was changed every 3 d.
(§6) The cytotoxic and protective effects of Lico D in hBM-MSCs were determined using the methylthiazolyldiphenyl-tetrazolium bromide (MTT) test, according to the manufacturer's instructions. To check the cytotoxic effect, hBM-MSCs were grown in a 96-well plate at a density of 8×10^3 cells per well. […] Cell viability was assessed using a spectrophotometer (Multiskan FC, Thermo Fisher Scientific). […] Following H2O2 treatment, cells were treated with MTT solution for 2 h, and cell viability was evaluated.

LC3 II, BECN1 and SQSTM1 = test: Immunoblotting of autophagy markers in heart tissue of D-Gal induced aging mice; assay type: in vivo, C57BL/6 mice; conditions: Lico D 0.5 mg/kg/day i.p. vs D-Gal-treated mice (FIGS. 8A-8D)
Procedure: as §2, with “Densitometry analysis was performed using the ImageJ software.” left out
(§7) Six-week-old male C57BL/6 mice (weighing 22±2 g) were purchased from Samtako Bio Korea Co., Ltd. (Osan, Gyeonggi, Korea) and maintained at 23-25° C. under a 12-h light and 12-h dark cycle with free access to food and water in a pathogen-free facility. […] Body weight was measured every week until the end of the experiment. […]

[5] = test system: human melanoma, oral squamous cell carcinoma and lung adenocarcinoma; conditions: previously reported; cited from earlier work
hBM-MSCs [6] = test: Senescence-associated β-galactosidase (SA-β-gal) staining, oxidative stress-induced senescence; assay type: cell-based, human; conditions: double time 200 μM H2O2 treated hBM-MSCs (40% without treatment); Lico D 1 μg/mL or ascorbic acid 500 μM for 72 h (FIG. 2C)
Procedure: as §1
Senescence-associated β-galactosidase positive cells were identified using an SA-β-gal assay kit (Cell Signaling Technology, Danvers, Mass., USA) according to the manufacturer's instructions. Briefly, after 72 h of treatment, cells were washed with phosphate-buffered saline (PBS) and fixed with 1× fixative for 10-15 min at room temperature. The β-galactosidase staining solution (pH 6.0) was added to the plates and incubated overnight in a dry incubator at 37° C. without CO2. The next day, the β-Gal positive cells were observed under a light microscope (Nikon Eclipse TS100; Tokyo, Japan) and captured using a Canon i-Solution IMTcam3 digital camera (Tokyo, Japan).

AMPK [7] = test: Immunoblotting of AMPK activation in heart and hippocampus tissues of D-Gal induced aging mice; assay type: in vivo, C57BL/6 mice
Procedure: as §2, with “Densitometry analysis was performed using the ImageJ software.” left out
as §7

[8] = test system: p53 and cleaved caspase 3; test: Immunoblotting of apoptotic markers after H2O2; assay type: cell-based, human; conditions: hBM-MSCs pretreated 1 μg/mL, H2O2 0.7 mM 1 h, vs H2O2 alone (FIG. 1E)
Procedure: as §4, with “To analyze the apoptotic markers, the cells were pretreated with 1 μg/mL of Lico D followed by incubation with H2O2 (0.7 mM) for 1 h at 37° C., and then the proteins were isolated as described below.” left out
Total proteins were extracted with RIPA (radioimmunoprecipitation) lysis buffer system containing phenylmethylsulfonyl fluoride (PMSF), sodium orthovanadate (Na3VO4), and protease inhibitor cocktail (Santa Cruz Biotechnology) at 4° C. for 30 min, and the samples were centrifuged (spun down) at 16,000×g for 20 min. The total protein concentration was quantified using the Pierce BCA Protein Assay Kit (Thermo Fisher Scientific). […]

p53 and p21 = test: Immunoblotting of senescence markers in heart and hippocampus tissues of D-Gal induced aging mice; assay type: in vivo, C57BL/6 mice
Procedure: as §2, with “Densitometry analysis was performed using the ImageJ software.” left out
as §7

hBM-MSCs [9] = test: MTT cell viability assay (protective effect against H2O2); assay type: cell-based, human; conditions: hBM-MSCs pre-treated with 1 μg/mL for 12 h, then H2O2 0-1 mM for 1 h (FIG. 1B)
Procedure: as §5, §6

[10] = oxidative stress-induced senescent hBM-MSCs, Lico D 1 μg/mL (FIGS. 4A-4D)

SMILES: c1cc(-c2cnn3cc(-c4ccc(OCCN5CCCCC5)cc4)cnc23)ccn1 [CC, reference compound]
AMPK-mediated autophagy upon treatment with CC (LC3, BECN1, SQSTM1; senescent hBM-MSCs, compound C 0.5 μM with Lico D (FIGS. 4A-4D)): inhibited | Lico D-mediated AMPK activation upon treatment with CC (AMPK [1]; senescent hBM-MSCs, compound C 0.5 μM with Lico D (FIGS. 3E, 3F)): abolished

expression of apoptotic proteins p53 and cleaved caspase 3 [8]: reduced
SMILES: COc1c(/C=C/C(=O)c2ccc(O)c(CC=C(C)C)c2)ccc(O)c1O [Lico D, Licochalcone D]
number of times of target platform crossing (MWM) (D-Gal induced aging mice; Lico D 0.5 mg/kg/day i.p. vs D-Gal treated mouse (FIG. 6C)): tendency of increasing | escape latency (MWM) (D-Gal induced aging mice; Lico D 0.5 mg/kg/day i.p. vs D-Gal treated mouse, similar to control (FIG. 6A)): markedly short time | duration in target quadrant (MWM) (D-Gal induced aging mice; Lico D 0.5 mg/kg/day i.p. vs D-Gal treated mouse, similar to control (FIG. 6B)): significantly longer time | intracellular ROS levels (hBM-MSCs [2]): significantly reduced | expression of senescence markers p53, p16, and p21 (p53, p16, and p21): reduced | body weight [3]: No significant differences | RAGE expression at the mRNA level (RAGE): significantly reduced | cell viability (hBM-MSCs [4]): no significant changes in cell viability | expression of autophagy markers (LC3 II, BECN1 and SQSTM1) (LC3 II, BECN1 and SQSTM1): markedly increased | anticancer activity [5]: anticancer activity in a dose-dependent manner | number of SA-β-gal-positive cells (hBM-MSCs [6]): 13% | AMPK activation, heart (AMPK [7]; heart tissue, Lico D 0.5 mg/kg/day i.p. vs D-Gal treatment (FIGS. 7D, 7E)): significantly increased | AMPK activation, hippocampus (AMPK [7]; hippocampus tissue, Lico D 0.5 mg/kg/day i.p. vs D-Gal treatment (FIGS. 7I, 7J)): significantly increased | expression levels of LC3 and BECN1 (LC3, BECN1, SQSTM1; [10]): significantly increased | expression of SQSTM1 (LC3, BECN1, SQSTM1; [10]): decreased | expression levels of p53 and p21, heart (p53 and p21; heart tissue, Lico D 0.5 mg/kg/day i.p. vs D-Gal-injected mice (FIGS. 7A-7C)): significantly reduced | expression levels of p53 and p21, hippocampus (p53 and p21; hippocampus tissue, Lico D 0.5 mg/kg/day i.p. vs D-Gal-injected mice (FIGS. 7F-7H)): significantly reduced | cell viability under H2O2 oxidative stress (hBM-MSCs [9]): significantly increased | AMPK activation (pAMPK/AMPK) (AMPK [1]; oxidative stress-induced senescent hBM-MSCs, Lico D 1 μg/mL 72 h (FIGS. 3E, 3F)): significantly restored

SMILES: O=C1O[C@H]([C@@H](O)CO)C(O)=C1O [ascorbic acid, reference compound]
number of SA-β-gal-positive cells (hBM-MSCs [6]): 17%
